Usually logD stands for lipophilicity at a set pH, counting ionised and neutral species. In general, logP refers to the decadic logarithm of the partition coefficient of the neutral form, usually between octanol and water. A lower logP goes with lower lipophilicity. One may read the Cmax as the peak of the concentration-time curve. In general, Tmax refers to the time from dosing to the highest level. The term half-life denotes the time in which the quantity being followed falls by half. A higher half-life goes with slow loss. What is called bioavailability is the share of a dose that reaches the circulation, judged against a reference dose that is usually intravenous. Higher therefore signals much systemic uptake.

Data set [1] can be described thus: Stability of the compound. The data set is classed as physicochemical.
Data set [2] in a line: Solubility of the compound in aqueous buffer. It is filed as physicochemical.
Data set [3] in a line: Distribution coefficient, log D of the compound at pH 7.4. It is filed as physicochemical. The conditions noted are these: octanol/water.
Data set [4] can be described thus: Lipophilicity, log P of the compound. The data set is classed as physicochemical. The conditions noted are these: octanol/water.
Data set [5] in a line: Cmax in Sprague-Dawley rat at 10 mg/kg, po administered as single dose by ESI-LC-MS/MS method. Details: dose 10 mg/kg, route oral. The conditions noted are these: in vivo. It is filed as ADME, organism-based.
Data set [6] is described as follows: Tmax in Sprague-Dawley rat at 10 mg/kg, po administered as single dose by ESI-LC-MS/MS method. It is filed as ADME, organism-based. The conditions noted are these: in vivo.
The nature of data set [7]: Plasma concentration in Sprague-Dawley rat at 10 mg/kg, po after 24 hrs administered as single dose by ESI-LC-MS/MS method. It is filed as ADME, organism-based.
Data set [8] can be described thus: Half life in Sprague-Dawley rat at 10 mg/kg, po administered as single dose by ESI-LC-MS/MS method. The data set is classed as ADME, organism-based. The conditions noted are these: in vivo.
Data set [9] is described as follows: Oral bioavailability in Sprague-Dawley rat at 10 mg/kg administered as single dose by ESI-LC-MS/MS method. The conditions noted are these: in vivo. It is filed as ADME, organism-based.
The nature of data set [10]: Ratio of AUC in Sprague-Dawley rat at 100 mg/kg, po administered as single dose by ESI-LC-MS/MS method to AUC in Sprague-Dawley rat at 10 mg/kg, po administered as single dose by ESI-LC-MS/MS method. It is filed as ADME, organism-based. The conditions noted are these: in vivo.
A short description of data set [11]: Ratio of Cmax in Sprague-Dawley rat at 100 mg/kg, po administered as single dose by ESI-LC-MS/MS method to Cmax in Sprague-Dawley rat at 10 mg/kg, po administered as single dose by ESI-LC-MS/MS method. The data set is classed as ADME, organism-based. The settings on record: in vivo.
Data set [12] is described as follows: Ratio of AUC in Sprague-Dawley rat at 300 mg/kg, po administered as single dose by ESI-LC-MS/MS method to AUC in Sprague-Dawley rat at 100 mg/kg, po administered as single dose by ESI-LC-MS/MS method. The data set is classed as ADME, organism-based. The settings on record: in vivo.
A short description of data set [13]: Tmax in Duroc Landrace pig at 3 mg/kg, po administered as single dose by ESI-LC-MS/MS method. It is filed as ADME, organism-based, Sus scrofa. The conditions noted are these: in vivo.
The nature of data set [14]: Half life in Duroc Landrace pig at 3 mg/kg, po administered as single dose by ESI-LC-MS/MS method. It is filed as ADME, organism-based, Sus scrofa. The settings on record: in vivo.
Data set [15] in a line: Oral bioavailability in Duroc Landrace pig at 3 mg/kg administered as single dose by ESI-LC-MS/MS method. It is filed as ADME, organism-based, Sus scrofa. The settings on record: in vivo.
Data set [16] in a line: Oral bioavailability in urethane-chloralose anesthetized pig at 3 mg/kg, id. The settings on record: in vivo. The data set is classed as ADME, organism-based, Sus scrofa.
The test system of data set [17] is Sus scrofa. Description: Inhibition of upper airway collapsibility in urethane-chloralose anesthetized pig assessed as time duration for onset of action at 1 mg/kg, id after 4 hrs. The data set is classed as functional.
In data set [18] the test system is Sus scrofa. Description: Inhibition of upper airway collapsibility in urethane-chloralose anesthetized pig assessed as time duration for onset of action at 3 mg/kg, id after 4 hrs. The data set is classed as functional.
Data set [19] can be described thus: Toxicity in anesthetized mongrel dog assessed as induction of major hemodynamic changes at 10 mg/kg, iv. The data set is classed as organism-based, Canis lupus familiaris. The settings on record: in vivo.
Data set [20] can be described thus: Toxicity in anesthetized mongrel dog assessed as induction of major electrophysiological changes at 10 mg/kg, iv. The data set is classed as organism-based, Canis lupus familiaris. The conditions noted are these: in vivo.

Consider `Cc1nnc(C)n1-c1ccc(O[C@H]2c3cc(Cl)cc(Cl)c3C[C@@H]2N2CC[C@@H](O)C2)c(F)c1.O=P(O)(O)O`, for which the Stability entry in data set [1] is listed as “Stable”. Moreover, the solubility result in data set [2] is “Soluble”. The same molecule gave a logD in data set [3] of 2.06. Further, the lipophilicity (logP) in data set [4] came to 2.05. The molecule further gave a peak concentration (Cmax) in data set [5] of 570 ng/mL. Further, the values for the Tmax in data set [6] and in data set [13] were 1 h and 0.5 h, respectively. For the same molecule, in data set [7], the concentration at 24 h is under 1 ng/mL. For the same molecule, the half-life in data set [8] was 2.7 h; in data set [14], 18 h. In addition, the bioavailability is 42% in data set [9], 18 to 98% in [15] and 61% in data set [16]. The Ratio in data set [10] is on record as 2.3; in [11], 2.3; in data set [12], 1.1. The Time in the data set on Sus scrofa [17] stood at 1 h; in the data set with Sus scrofa [18], 1.5 h. Further, the Activity entry in data set [19] and in data set [20] was “Non-Toxic” throughout.

For the origin of these results see ChEMBL document CHEMBL3860060, “Discovery and Optimization of 1-Phenoxy-2-aminoindanes as Potent, Selective, and Orally Bioavailable Inhibitors of the Na+/H+ Exchanger Type 3 (NHE3)” (J Med Chem, 2016).
